In patent US8309121B2, “Dermatological compositions comprising avermectin nanocapsules” (Galderma S.A., priority 2006, dated 2012):

Key:
[1] = cited from earlier work
[2] = in ceteareth-25, ceteareth-6, PEG-8-distearate, PEG-8-stearate, PEG-660-OH-stearate, PEG-4000, polyoxyethylene-10, glycerol monostearate S/E, propylene glycol dicaprylate, cetearyl octanoate, polyglycerol-3-diolate, C18-C36 triglycerides, Gamma cyclodextrin, soybean lecithin, cholesterol, stearic acid; cited from earlier work
[3] = Stability of ivermectin in various excipients; type: physicochemical; conditions: for T 1 month 40° C. content / T 1 month Tambient content / T 3 months 40° C. content / T 3 months Tambient content: T0 in mg/g; for T 1 month 40° C. (% in brackets) / T 1 month Tambient (% in brackets) / T 3 months 40° C. (% in brackets) / T 3 months Tambient (% in brackets): relative to T0
Excerpt: (§1) There are numerous excipients used in the formulation of emulsions or liposomes which result in degradation of ivermectin. The Table below presents the results of tests of stability and solubility of ivermectin in various excipients: […]

[4] = Solubility of ivermectin in various excipients; type: physicochemical
Excerpt: as §1

[5] = in Labrafac Hydro WL1219 (caprylic/capric triglyceride PEG-4 esters)
[6] = in Labrafac Hydro WL1219, 1 month
[7] = in Lipoid S75-3 + benzyl alcohol, 1 month
[8] = in Lipoid S75-3 + benzyl alcohol
[9] = in Mygliol 812 (medium-chain triglycerides of caprylic and capric acids)
[10] = in Ph90H + benzyl alcohol, 1 month
[11] = in Solutol HS15 (PEG-15 hydroxystearate)

For ivermectin, the “Stability in a hydrophilic medium (in words)” value ([1]; hydrophilic medium) is given as “degraded”, the solubility in water ([1]; water) is given as 5 µg/mL and the “Stability in lipophilic excipients (in words)” value [2] is given as “degradation”. For the same substance, the “Degradation by hydrogenated lecithins (in words)” value ([3]; hydrogenated lecithins, studies of Example 1) was “do not degrade”, the “T 1 month 40° C. content” value ([3]; in Benzyl alcohol, 1 month) was 9.7 and the “T 1 month 40° C. (% in brackets)” value ([3]; in Benzyl alcohol, 1 month) was “(98%)”. The “T 1 month Tambient content” value ([3]; in Benzyl alcohol, 1 month) was 9.8, the “T 1 month Tambient (% in brackets)” value ([3]; in Benzyl alcohol, 1 month) was “(99%)” and the T0 content ([3]; in Benzyl alcohol) was 9.9 mg/g. The “Stability (in words)” value ([3]; in Crodamol DA) was “Stable over 1 month”, the T0 content [3, 5] was 9.0 mg/g and the “T 1 month 40° C. content” value [3, 6] was 6.7. For the same substance, the “T 1 month 40° C. (% in brackets)” value [3, 6] was “(75%)”, the “T 1 month Tambient content” value [3, 6] was 8.5 and the “T 1 month Tambient (% in brackets)” value [3, 6] was “(95%)”. For the same substance, the “T 3 months 40° C. content” value ([3]; in Labrafac Hydro WL1219) was 4.2, the “T 3 months 40° C. (% in brackets)” value ([3]; in Labrafac Hydro WL1219) was “(47%)” and the “T 3 months Tambient content” value ([3]; in Labrafac Hydro WL1219) was 6.3. For the same substance, the “T 3 months Tambient (% in brackets)” value ([3]; in Labrafac Hydro WL1219) was “(70%)”, the T0 content ([3]; in Labrasol (PEG-8 caprylic/capric glycerides)) was 8.1 mg/g and the “T 1 month 40° C. content” value ([3]; in Labrasol, 1 month) was 7.9. For the same substance, the “T 1 month 40° C. (% in brackets)” value ([3]; in Labrasol, 1 month) was “(98%)”, the “T 1 month Tambient content” value ([3]; in Labrasol, 1 month) was 8.1 and the “T 1 month Tambient (% in brackets)” value ([3]; in Labrasol, 1 month) was “(100%)”. The “T 3 months 40° C. content” value ([3]; in Labrasol) was 5.6, the “T 3 months 40° C. (% in brackets)” value ([3]; in Labrasol) was “(69%)” and the “T 3 months Tambient content” value ([3]; in Labrasol) was 8.1. The “T 3 months Tambient (% in brackets)” value ([3]; in Labrasol) was “(100%)”, the “T 1 month 40° C. content” value [3, 7] was 9.5 and the “T 1 month 40° C. (% in brackets)” value [3, 7] was “(101%)”. The “T 1 month Tambient content” value [3, 7] was 9.5, the “T 1 month Tambient (% in brackets)” value [3, 7] was “(101%)” and the “T 3 months 40° C. content” value [3, 8] was 9.7. For the same substance, the “T 3 months 40° C. (% in brackets)” value [3, 8] was “(103%)”, the “T 3 months Tambient content” value [3, 8] was 9.2 and the “T 3 months Tambient (% in brackets)” value [3, 8] was “(98%)”. The T0 content [3, 8] was 9.4 mg/g, the “T 1 month 40° C. content” value ([3]; in Miglyol 812, 1 month) was 8.2 and the “T 1 month 40° C. (% in brackets)” value ([3]; in Miglyol 812, 1 month) was “(94%)”. For the same substance, the “T 1 month Tambient content” value ([3]; in Miglyol 812, 1 month) was 8.3, the “T 1 month Tambient (% in brackets)” value ([3]; in Miglyol 812, 1 month) was “(95%)” and the “T 3 months 40° C. content” value ([3]; in Miglyol 812) was 8.4. The “T 3 months 40° C. (% in brackets)” value ([3]; in Miglyol 812) was “(96%)”, the “T 3 months Tambient content” value ([3]; in Miglyol 812) was 8.3 and the “T 3 months Tambient (% in brackets)” value ([3]; in Miglyol 812) was “(96%)”. For the same substance, the T0 content ([3]; in Miglyol 812) was 8.7 mg/g, the “Stability (in words)” value [3, 9] was “not perfectly stable” and the T0 content ([3]; in Ph90H (Phospholipon 90H) + benzyl alcohol) was 9.25 mg/g. For the same substance, the “T 1 month 40° C. content” value [3, 10] was 9.5, the “T 1 month 40° C. (% in brackets)” value [3, 10] was “(103%)” and the “T 1 month Tambient content” value [3, 10] was 9.7. For the same substance, the “T 1 month Tambient (% in brackets)” value [3, 10] was “(105%)”, the T0 content [3, 11] was 9.8 mg/g and the “degradation at 1 month” value ([3]; in Solutol HS15, 1 month) was 28%. The “T 1 month 40° C. content” value ([3]; in Solutol HS15, 1 month) was 7.1, the “T 1 month 40° C. (% in brackets)” value ([3]; in Solutol HS15, 1 month) was “(72%)” and the “T 1 month Tambient content” value ([3]; in Solutol HS15, 1 month) was 9.4. For the same substance, the “T 1 month Tambient (% in brackets)” value ([3]; in Solutol HS15, 1 month) was “(95%)”, the Solubility max ([4]; in Benzyl alcohol) was 32.8 mg/g and the Solubility max ([4]; in Benzyl benzoate) was 44.2 mg/g. For the same substance, the Solubility max ([4]; in Crodamol DA) was 94.2 mg/g, the Solubility max [4, 5] was 70 mg/g and the Solubility max ([4]; in Miglyol 812) was 17.9 mg/g. The “Solubility (in words)” value [4, 9] was “relatively low solubility” and the Solubility max [4, 11] was 10.8 mg/g.
